Laboratory results published in publication PMC6268275, “Use of Spectroscopic, Zeta Potential and Molecular Dynamic Techniques to Study the Interaction between Human Holo-Transferrin and Two Antagonist Drugs: Comparison of Binary and Ternary Systems” (Molecules, 2012).
Counter-ions that a name gives are not always drawn.

Molecular target: T1, human holo-transferrin (hTf) (Homo sapiens, UniProt P02787)
T1 construct: gene TF; commercial holo (iron-loaded) glycoprotein, Sigma-Aldrich; mature full length, 679 residues, ~79 kDa, N-lobe and C-lobe, no tag stated
Assay: intrinsic fluorescence quenching titration
Type: binding
Details: double-log, excitation 280 nm, 50 mM potassium phosphate pH 7.4, 298 K
Source text: intrinsic fluorescence quenching titration on human holo-transferrin (hTf)

T1 sequence (P02787 20-698): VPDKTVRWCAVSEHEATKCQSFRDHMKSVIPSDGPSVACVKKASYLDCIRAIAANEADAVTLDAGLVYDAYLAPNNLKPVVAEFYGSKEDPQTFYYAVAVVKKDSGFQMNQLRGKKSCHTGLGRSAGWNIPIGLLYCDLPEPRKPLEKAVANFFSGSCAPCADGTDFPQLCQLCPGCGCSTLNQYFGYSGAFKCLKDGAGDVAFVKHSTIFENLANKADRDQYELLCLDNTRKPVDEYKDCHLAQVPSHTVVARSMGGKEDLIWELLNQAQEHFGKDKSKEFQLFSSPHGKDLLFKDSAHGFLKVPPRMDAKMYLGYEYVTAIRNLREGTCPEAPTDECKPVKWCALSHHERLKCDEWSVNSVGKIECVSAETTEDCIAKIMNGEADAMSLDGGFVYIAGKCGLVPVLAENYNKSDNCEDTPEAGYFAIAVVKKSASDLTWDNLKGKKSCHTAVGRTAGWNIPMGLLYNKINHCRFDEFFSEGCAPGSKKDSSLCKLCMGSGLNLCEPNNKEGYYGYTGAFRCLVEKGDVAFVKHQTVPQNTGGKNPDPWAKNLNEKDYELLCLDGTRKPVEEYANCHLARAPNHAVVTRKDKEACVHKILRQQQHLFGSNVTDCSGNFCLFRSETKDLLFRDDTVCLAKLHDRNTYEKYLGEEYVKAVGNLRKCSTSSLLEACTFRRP

K b ( L mol^-1) / λ ex = 280 nM (stronger of two sites, binary system without aspirin) | SMILES | K b ( L mol^-1) / λ ex = 280 nM (one site, binary system without ropinirole)
 | CC(=O)Oc1ccccc1C(=O)O [aspirin, 2-acetoxy benzoic acid] | (7.83 ± 0.02) × 10^3 L mol^-1
(1.69 ± 0.03) × 10^6 L mol^-1 | CCCN(CCC)CCc1cccc2c1CC(=O)N2 [ropinirole hydrochloride, 4-[2-(dipropylamino)ethyl]-1,3-dihydro-2H-indol-2-one monohydro-chloride] | 
